Measured values as given in ChEMBL document CHEMBL4004838, “Design and synthesis of novel phenyl -1, 4-beta-carboline-hybrid molecules as potential anticancer agents” (Eur J Med Chem, 2017).
Active and inactive are the calls of the source. No cut-off for these calls is given here.

Key:
[1] = system: SNB-75; experiment: Growth inhibition of human SNB75 cells incubated for 48 hrs by sulforhodamine B assay; assay type: functional; settings: SNB-75, 48 h
[2] = system: SK-OV-3; experiment: Growth inhibition of human SKOV3 cells assessed as cell growth at 1 uM incubated for 48 hrs by sulforhodamine B assay relative to control; assay type: functional; settings: SK-OV-3, 48 h, read-out: Activity
[3] = system: OVCAR-5; experiment: Growth inhibition of human OVCAR5 cells assessed as cell growth at 0.1 uM incubated for 48 hrs by sulforhodamine B assay relative to control; assay type: functional; settings: OVCAR-5, 48 h, read-out: Activity
[4] = system: UACC-62; experiment: Growth inhibition of human UACC62 cells assessed as cell growth at 0.1 uM incubated for 48 hrs by sulforhodamine B assay relative to control; assay type: functional; settings: UACC-62, 48 h, read-out: Activity
[5] = system: HCT-15; experiment: Growth inhibition of human HCT15 cells assessed as cell growth at 100 uM incubated for 48 hrs by sulforhodamine B assay relative to control; assay type: functional; settings: HCT-15, 48 h, read-out: Activity
[6] = system: HCC 2998; experiment: Growth inhibition of human HCC2998 cells assessed as cell growth at 1 uM incubated for 48 hrs by sulforhodamine B assay relative to control; assay type: functional; settings: HCC 2998, 48 h, read-out: Activity
[7] = system: SW-620; experiment: Growth inhibition of human SW620 cells incubated for 48 hrs by sulforhodamine B assay; assay type: functional; settings: SW-620, 48 h
[8] = system: EKVX; experiment: Growth inhibition of human EKVX cells assessed as cell growth at 100 uM incubated for 48 hrs by sulforhodamine B assay relative to control; assay type: functional; settings: read-out: Activity
[9] = system: T47D; experiment: Growth inhibition of human T47D cells assessed as cell growth at 0.01 uM incubated for 48 hrs by sulforhodamine B assay relative to control; assay type: functional; settings: read-out: Activity
[10] = system: BT-549; experiment: Growth inhibition of human BT549 cells assessed as cell growth at 1 uM incubated for 48 hrs by sulforhodamine B assay relative to control; assay type: functional; settings: BT-549, 48 h, read-out: Activity
[11] = system: COLO 205; experiment: Growth inhibition of human COLO205 cells assessed as cell growth at 100 uM incubated for 48 hrs by sulforhodamine B assay relative to control; assay type: functional; settings: COLO 205, 48 h, read-out: Activity
[12] = system: A498; experiment: Growth inhibition of human A498 cells incubated for 48 hrs by sulforhodamine B assay; assay type: functional; settings: A498, 48 h
[13] = system: ACHN; experiment: Growth inhibition of human ACHN cells assessed as cell growth at 0.01 uM incubated for 48 hrs by sulforhodamine B assay relative to control; assay type: functional; settings: read-out: Activity
[14] = system: SF-539; experiment: Growth inhibition of human SF539 cells assessed as cell growth at 1 uM incubated for 48 hrs by sulforhodamine B assay relative to control; assay type: functional; settings: SF-539, 48 h, read-out: Activity
[15] = system: U-251; experiment: Growth inhibition of human U251 cells incubated for 48 hrs by sulforhodamine B assay; assay type: functional; settings: U-251, 48 h
[16] = system: Malme-3M; experiment: Growth inhibition of human MALME-3M cells assessed as cell growth at 0.1 uM incubated for 48 hrs by sulforhodamine B assay relative to control; assay type: functional; settings: read-out: Activity
[17] = system: HOP-92; experiment: Growth inhibition of human HOP92 cells assessed as cell growth at 0.01 uM incubated for 48 hrs by sulforhodamine B assay relative to control; assay type: functional; settings: HOP-92, 48 h, read-out: Activity
[18] = system: LOX IMVI; experiment: Growth inhibition of human LOXIMVI cells assessed as cell growth at 0.1 uM incubated for 48 hrs by sulforhodamine B assay relative to control; assay type: functional; settings: read-out: Activity
[19] = system: MDA-MB-468; experiment: Growth inhibition of human MDA-MB-468 cells assessed as cell growth at 1 uM incubated for 48 hrs by sulforhodamine B assay relative to control; assay type: functional; settings: MDA-MB-468, 48 h, read-out: Activity
[20] = system: MDA-MB-468; experiment: Growth inhibition of human MDA-MB-468 cells assessed as cell growth at 0.1 uM incubated for 48 hrs by sulforhodamine B assay relative to control; assay type: functional; settings: MDA-MB-468, 48 h, read-out: Activity
[21] = system: MOLT-4; experiment: Growth inhibition of human MOLT4 cells assessed as cell growth at 1 uM incubated for 48 hrs by sulforhodamine B assay relative to control; assay type: functional; settings: MOLT-4, 48 h, read-out: Activity
[22] = system: SK-OV-3; experiment: Growth inhibition of human SKOV3 cells assessed as cell growth at 0.1 uM incubated for 48 hrs by sulforhodamine B assay relative to control; assay type: functional; settings: SK-OV-3, 48 h, read-out: Activity
[23] = system: A549; experiment: Growth inhibition of human A549/ATCC cells assessed as cell growth at 100 uM incubated for 48 hrs by sulforhodamine B assay relative to control; assay type: functional; settings: A549, 48 h, read-out: Activity
[24] = system: MDA-MB-435; experiment: Growth inhibition of human MDA-MB-435 cells assessed as cell growth at 0.01 uM incubated for 48 hrs by sulforhodamine B assay relative to control; assay type: functional; settings: MDA-MB-435, 48 h, read-out: Activity
[25] = system: Hs-578T; experiment: Growth inhibition of human Hs 578T cells assessed as cell growth at 100 uM incubated for 48 hrs by sulforhodamine B assay relative to control; assay type: functional; settings: read-out: Activity
[26] = system: SK-MEL-2; experiment: Growth inhibition of human SK-MEL-2 cells assessed as cell growth at 0.01 uM incubated for 48 hrs by sulforhodamine B assay relative to control; assay type: functional; settings: SK-MEL-2, 48 h, read-out: Activity
[27] = species on record: Bos taurus; experiment: Binding affinity to calf thymus DNA assessed as induction of hyperchromic shift at 20 uM sonicated for 35 to 40 mins by UV-vis spectrophotometric analysis
[28] = system: HL-60(TB); experiment: Growth inhibition of human HL-60(TB) cells assessed as cell growth at 0.1 uM incubated for 48 hrs by sulforhodamine B assay relative to control; assay type: functional; settings: HL-60, 48 h, read-out: Activity
[29] = system: HOP-62; experiment: Growth inhibition of human HOP62 cells assessed as cell growth at 0.1 uM incubated for 48 hrs by sulforhodamine B assay relative to control; assay type: functional; settings: HOP-62, 48 h, read-out: Activity
[30] = system: TK-10; experiment: Growth inhibition of human TK10 cells assessed as cell growth at 100 uM incubated for 48 hrs by sulforhodamine B assay relative to control; assay type: functional; settings: TK-10, 48 h, read-out: Activity
[31] = system: 786-0; experiment: Growth inhibition of human 786-0 cells assessed as cell growth at 1 uM incubated for 48 hrs by sulforhodamine B assay relative to control; assay type: functional; settings: 786-0, 48 h, read-out: Activity
[32] = system: SK-MEL-5; experiment: Growth inhibition of human SK-MEL-5 cells assessed as cell growth at 1 uM incubated for 48 hrs by sulforhodamine B assay relative to control; assay type: functional; settings: SK-MEL-5, 48 h, read-out: Activity
[33] = read-out: LC50 (the source's name)
[34] = read-out: pLC50 (the source's name) (converted)

## c1ccc2c3c([nH]c2c1)C(c1ccc(C2NCCc4c2[nH]c2ccccc42)cc1)NCC3 (racemic)
[1]; [33]
  CC50: 4.59 µM
[1]; read-out: pGI50 (converted)
  GI50: 0.692 µM
[1]; [34]
  CC50: 4.57 µM
[1]; read-out: pTGI (converted)
  TGI: 2.09 µM
[2]
  growth at 1 µM: 90%
[3]
  growth at 0.1 µM: 93%
[4]
  growth at 0.1 µM: 99%
[5]
  growth at 100 µM: 90%
[6]
  growth at 1 µM: 10%
[7]; read-out: GI50
  GI50: 1.85 µM
[7]; [33]
  CC50: 6.39 µM
[7]; read-out: TGI
  TGI: 3.44 µM
[7]; read-out: pGI50 (converted)
  GI50: 0.186 µM
[7]; [34]
  CC50: 0.646 µM
[8]
  growth at 100 µM: 81%
[9]
  growth at 0.01 µM: 82%
[10]
  growth at 1 µM: 85%
[11]
  growth at 100 µM: 84%
[12]; read-out: GI50
  GI50: 1.64 µM
[12]; [33]
  CC50: 36.9 µM
[12]; read-out: TGI
  TGI: 8.87 µM
[12]; read-out: pGI50 (converted)
  GI50: 1.66 µM
[12]; [34]
  CC50: 37.2 µM
[12]; read-out: pTGI (converted)
  TGI: 8.91 µM
[13]
  growth at 0.01 µM: 92%
[14]
  growth at 1 µM: 88%
[15]; read-out: pGI50 (converted)
  GI50: 0.324 µM
[15]; read-out: pTGI (converted)
  TGI: 1.1 µM
[16]
  growth at 0.1 µM: 89%
[17]
  growth at 0.01 µM: 86%
[18]
  growth at 0.1 µM: 91%
[19]
  growth at 1 µM: 11%
[20]
  growth at 0.1 µM: 100%
[21]
  growth at 1 µM: 13%
[22]
  growth at 0.1 µM: 95%
[23]
  growth at 100 µM: 87%
[24]
  growth at 0.01 µM: 95%
[25]
  growth at 100 µM: -65%
[26]
  growth at 0.01 µM: 100%
[27]
  Activity: Active
[28]
  growth at 0.1 µM: 116%
[29]
  growth at 0.1 µM: 85%
[30]
  growth at 100 µM: -96%
[31]
  growth at 1 µM: 92%
[32]
  growth at 1 µM: 94%

## c1ccc2[nH]c(-c3ccc(-c4nccc5c4[nH]c4ccccc45)cc3)nc2c1
[1]; read-out: GI50
  GI50: 1.57 µM
[1]; [33]
  CC50: 1.19 µM
[1]; read-out: TGI
  TGI: 4.08 µM
[1]; read-out: pGI50 (converted)
  GI50: 1.58 µM
[1]; [34]
  CC50: 12 µM
[1]; read-out: pTGI (converted)
  TGI: 4.07 µM
[2]
  growth at 1 µM: 100%
[3]
  growth at 0.1 µM: 90%
[4]
  growth at 0.1 µM: 91%
[5]
  growth at 100 µM: 71%
[6]
  growth at 1 µM: 96%
[7]; read-out: GI50
  GI50: 2.79 µM
[7]; [33]
  CC50: > 1 µM
[7]; read-out: TGI
  TGI: 8.48 µM
[7]; read-out: pGI50 (converted)
  GI50: 2.82 µM
[7]; [34]
  CC50: > 100 µM
[7]; read-out: pTGI (converted)
  TGI: 8.51 µM
[8]
  growth at 100 µM: 44%
[9]
  growth at 0.01 µM: 88%
[10]
  growth at 1 µM: 90%
[11]
  growth at 100 µM: 65%
[12]; read-out: GI50
  GI50: 1.14 µM
[12]; [33]
  CC50: 5.68 µM
[12]; read-out: pGI50 (converted)
  GI50: 11.5 µM
[12]; [34]
  CC50: 56.2 µM
[12]; read-out: pTGI (converted)
  TGI: 25.7 µM
[13]
  growth at 0.01 µM: 99%
[14]
  growth at 1 µM: 98%
[15]; read-out: GI50
  GI50: 2.74 µM
[15]; read-out: LC50
  LC50: 4.05 µM
[15]; read-out: TGI
  TGI: 7.83 µM
[15]; read-out: pGI50 (converted)
  GI50: 2.75 µM
[15]; read-out: pLC50 (converted)
  LC50: 40.7 µM
[15]; read-out: pTGI (converted)
  TGI: 7.76 µM
[16]
  growth at 0.1 µM: 94%
[17]
  growth at 0.01 µM: 85%
[18]
  growth at 0.1 µM: 92%
[19]
  growth at 1 µM: 98%
[20]
  growth at 0.1 µM: 99%
[21]
  growth at 1 µM: 93%
[22]
  growth at 0.1 µM: 98%
[23]
  growth at 100 µM: 58%
[24]
  growth at 0.01 µM: 93%
[25]
  growth at 100 µM: 46%
[26]
  growth at 0.01 µM: 95%
[27]
  Activity: Active
[28]
  growth at 0.1 µM: 92%
[29]
  growth at 0.1 µM: 89%
[30]
  growth at 100 µM: 85%
[31]
  growth at 1 µM: 89%
[32]
  growth at 1 µM: 94%
